Results reported in patent publication US11891401B2, “Solid forms of N-(4-fluoro-3-(6-(3-methylpyridin-2-yl)-[1,2,4]triazolo[1,5-a]pyrimidin-2-yl)phenyl)-2,4-dimethyloxazole-5-carboxamide” (NOVARTIS AG, priority 2018, dated 2024).
Values after ≈ are worked out from the molar mass of the structure shown.

Columns and labels:
Type in all cases: physicochemical
[1] = Dynamic Vapor Sorption (DVS) moisture absorption / hygroscopicity; settings: for solid form after DVS: after DVS testing
[2] = Solid-state chemical stability: degradation products by UPLC/HPLC after stress storage; settings: for DP % (Degradation Product), Bulk (UPLC): Solid state
Description: (§1) Compound I, Compound I fumaric acid co-crystals and amorphous Compound I fumaric acid samples (10 mg) were placed in an open vial at 50° C./75% RH and 80° C./75% RH chamber for one week. A same amount of sample was placed in a closed vial at 50° C. and 80° C. chamber for 1 week. The samples were exposed to 100 k Lux light for 12 h at 25° C. Solids were examined by XRPD for physical stability determination and by UPLC for chemical stability determination. The color of the samples was evaluated by visual observation. Table 5 compares the stability of Compound I and its various solid forms.

[3] = Solubility in various media at 25° C. after 24 hours equilibration (UPLC); settings: for final pH of the sample (in parentheses): after 24 hours equilibration
[4] = Solid-state physical stability: form change by XRPD after stress storage; settings: for Bulk (XRPD): Solid state
Description: as §1

[5] = Form after storage at 92% RH; settings: 24 hrs
[6] = Crystal form after grinding, compression and wet granulation; settings: compression and wet granulation (water and ethanol), listed as free form hydrate
[7] = Form after degradation at 160° C.
[8] = 50° C., 50° C./75& RH, 80° C. and 80° C./75% RH for one week
[9] = 1 week 50° C., closed container
[10] = 1 week 80° C., closed container

For `Cc1nc(C)c(C(=O)Nc2ccc(F)c(-c3nc4ncc(-c5ncccc5C)cn4n3)c2)o1` [Free Form, N-(4-fluoro-3-(6-(3-methylpyridin-2-yl)-[1,2,4]triazolo[1,5-a]pyrimidin-2-yl)phenyl)-2,4-dimethyloxazole-5-carboxamide], which “solid form after DVS” value ([1]; listed as Compound I free form) is on record?
Its value is “changes into a dihydrate”.

And the “solid form after DVS” value ([1]; listed as free form hydrate)?
Its value is “form change that is likely a dihydrate”.

And the “moisture absorption by DVS” value ([1]; at 25° C., RH not stated)?
The value was 8.9%.

And the hygroscopicity ([1]; by DVS, listed as free form hydrate)?
Its hygroscopicity is “hygroscopic”.

And the “chemical stability in bulk” value [2, 8]?
The value was “chemically stable”.

What about the “stability upon exposure to light” value ([2]; 1200 kLuxh light for 12 hrs) of the same compound?
Its value is “stable”.

And the “DP % (Degradation Product), Bulk (UPLC)” value [2, 9]?
Its value is 0.6%.

What about the “DP % (Degradation Product), Bulk (UPLC)” value ([2]; 1 week 50° C./75% r.h.) of the same compound?
Its value is 0.6%.

And the “DP % (Degradation Product), Bulk (UPLC)” value [2, 10]?
Its value is 0.6%.

And the “DP % (Degradation Product), Bulk (UPLC)” value ([2]; 1 week 80° C./75% r.h.)?
Its value is 0.6%.

And the “DP % (Degradation Product), Amber vial (HPLC)” value ([2]; Xenon light (approx. 1200 kLuxh), amber vial)?
The value was 0.8%.

And the “DP % (Degradation Product), Clear vial (HPLC)” value ([2]; Xenon light (approx. 1200 kLuxh), clear vial)?
The value was 0.6%.

And the “final pH of the sample (in parentheses)” value ([3]; 0.01N HCl pH 2.0)?
Its value is 2.10.

And the solubility ([3]; 0.1N HCl pH 1.0, 25° C., 24 hours equilibration)?
Its solubility is 232 µg/mL (≈ 523 µM).

What about the “final pH of the sample (in parentheses)” value ([3]; 0.1N HCl pH 1.0) of the same compound?
The value was 1.00.

What about the solubility ([3]; FaSSIF pH 6.5, 25° C., 24 hours equilibration) of the same compound?
Its solubility is 4 µg/mL (≈ 9.02 µM).

What about the “final pH of the sample (in parentheses)” value ([3]; FaSSIF pH 6.5) of the same compound?
The value was 6.31.

And the solubility ([3]; FeSSIF pH 5.8, 25° C., 24 hours equilibration)?
Its solubility is 6 µg/mL (≈ 13.5 µM).

And the “final pH of the sample (in parentheses)” value ([3]; FeSSIF pH 5.8)?
The value was 5.73.

And the solubility ([3]; SGF pH 2.0, 25° C., 24 hours equilibration)?
The solubility was 29 µg/mL (≈ 65.4 µM).

And the “final pH of the sample (in parentheses)” value ([3]; SGF pH 2.0)?
The value was 1.99.

What about the solubility ([3]; acetate buffer pH 4.7, 25° C., 24 hours equilibration) of the same compound?
Its solubility is 2 µg/mL (≈ 4.51 µM).

What about the “final pH of the sample (in parentheses)” value ([3]; acetate buffer pH 4.7) of the same compound?
The value was 4.68.

And the solubility ([3]; borate buffer pH 10.0, 25° C., 24 hours equilibration)?
The solubility was 2 µg/mL (≈ 4.51 µM).

What about the “final pH of the sample (in parentheses)” value ([3]; borate buffer pH 10.0) of the same compound?
Its value is 8.58.

And the solubility ([3]; phosphate buffer pH 6.8, 25° C., 24 hours equilibration)?
Its solubility is 1 µg/mL (≈ 2.26 µM).

And the “final pH of the sample (in parentheses)” value ([3]; phosphate buffer pH 6.8)?
The value was 6.65.

And the solubility at 24 h ([3]; simulated gastric fluid, thermodynamic from solid, 0.01N HCl pH 2.0, 25° C., 24 hours equilibration)?
The solubility at 24 h was 17 µg/mL (≈ 38.3 µM).

What about the solubility ([3]; water, 25° C., 24 hours equilibration) of the same compound?
Its solubility is 9 µg/mL (≈ 20.3 µM).

And the “final pH of the sample (in parentheses)” value ([3]; water)?
Its value is 8.18.

What about the “form change in bulk” value [4, 8] of the same compound?
The value was “form changes were noticed”.

What about the “form obtained upon exposure to 75% RH humidity” value ([4]; 75% RH at both temperatures (50° C. and 80° C.), one week) of the same compound?
Its value is “a dihydrate was obtained”.

And the “Bulk (XRPD)” value [4, 9]?
The value was “no change”.

And the “Bulk (XRPD)” value ([4]; 1 week 50° C./75% r.h.)?
Its value is “change”.

And the “Bulk (XRPD)” value [4, 10]?
Its value is “change”.

What about the form observed ([4]; under 50° C./75% RH) of the same compound?
The form observed was “mixture of the free form hydrate and anhydrous modification”.

What about the “form after storage at 92% RH” value ([5]; listed as Compound I free form) of the same compound?
The value was “changes into a dihydrate”.

What about the “form after storage at 92% RH” value ([5]; listed as free form hydrate) of the same compound?
Its value is “dihydrate”.

What about the “crystal form after grinding, compression and wet granulation” value [6] of the same compound?
Its value is “converted to a different hydrate or a hydrate mixture”.

And the “form after degradation at 160° C.” value [7]?
The value was “converts to an amorphous form”.
